According to ChEMBL document CHEMBL5042488, “Synthesis, biological, and structural explorations of a series of μ-opioid receptor (MOR) agonists with high G protein signaling bias” (Eur J Med Chem, 2022):
Activity calls are given as the source filed them.

What was measured:
Mu-type opioid receptor [1] = biological target: T1, Mu-type opioid receptor (Homo sapiens, UniProt P35372); assay: Agonist activity at mu opioid receptor (unknown origin) assessed as increase in cAMP level incubated for 40 mins by spectrophotometry; assay type: functional
T1 sequence (P35372 whole entry): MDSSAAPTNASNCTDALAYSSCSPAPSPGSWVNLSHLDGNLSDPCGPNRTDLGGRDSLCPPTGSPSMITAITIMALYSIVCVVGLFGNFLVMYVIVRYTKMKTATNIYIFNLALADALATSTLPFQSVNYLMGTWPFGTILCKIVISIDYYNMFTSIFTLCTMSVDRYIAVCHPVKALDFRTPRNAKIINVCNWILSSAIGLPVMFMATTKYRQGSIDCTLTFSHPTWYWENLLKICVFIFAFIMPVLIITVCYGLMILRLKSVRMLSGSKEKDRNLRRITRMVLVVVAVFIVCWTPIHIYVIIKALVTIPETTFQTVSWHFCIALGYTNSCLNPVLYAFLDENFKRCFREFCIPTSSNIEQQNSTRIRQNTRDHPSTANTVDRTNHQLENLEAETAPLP

[2] = Metabolic stability in human liver microsomes assessed as intrinsic clearance preincubated for 10 mins followed by NADPH addition and measured after 60 mins by LC-MS/MS analysis; assay type: ADME, Microsome; conditions: time 70 min, read-out: CLH
Mu-type opioid receptor [3] = biological target: T1, Mu-type opioid receptor; assay: Agonist activity at mu opioid receptor (unknown origin) assessed as maximal cAMP level incubated for 40 mins by spectrophotometry relative to DAMGO; assay type: functional; conditions: filed as agonist
Mu-type opioid receptor [4] = biological target: T1, Mu-type opioid receptor; assay: Agonist activity at mu opioid receptor (unknown origin) assessed as beta arrestin-2 recruitment incubated for 3 days by PathHunter assay; assay type: functional
Mu-type opioid receptor [5] = biological target: T1, Mu-type opioid receptor; assay: Agonist activity at mu opioid receptor (unknown origin) assessed as maximal beta arrestin-2 recruitment incubated for 3 days by PathHunter assay relative to DAMGO; assay type: functional; conditions: time 3.0 day
[6] = Metabolic stability in rat liver microsomes assessed as intrinsic clearance preincubated for 10 mins followed by NADPH addition and measured after 60 mins by LC-MS/MS analysis; assay type: ADME, Microsome; conditions: time 70 min, read-out: CLH
[7] = Apparent permeability across apical to basal membrane in human Caco-2 cells; assay type: ADME, cell-based
[8] = Metabolic stability in dog liver microsomes assessed as intrinsic clearance preincubated for 10 mins followed by NADPH addition and measured after 60 mins by LC-MS/MS analysis; assay type: ADME, Canis lupus familiaris, Microsome; conditions: time 70 min, read-out: CLH
[9] = Plasma protein binding in human plasma assessed as unbound fraction; assay type: ADME, cell-free
[10] = Plasma protein binding in rat plasma assessed as unbound fraction; assay type: ADME, cell-free
[11] = Plasma protein binding in dog plasma assessed as unbound fraction; assay type: ADME, cell-free, Canis lupus familiaris
Cytochrome P450 2C9 = Cytochrome P450 2C9 (Homo sapiens, UniProt P11712); assay: Inhibition of CYP2C9 (unknown origin); assay type: ADME
Cytochrome P450 2C9, sequence (P11712 whole entry): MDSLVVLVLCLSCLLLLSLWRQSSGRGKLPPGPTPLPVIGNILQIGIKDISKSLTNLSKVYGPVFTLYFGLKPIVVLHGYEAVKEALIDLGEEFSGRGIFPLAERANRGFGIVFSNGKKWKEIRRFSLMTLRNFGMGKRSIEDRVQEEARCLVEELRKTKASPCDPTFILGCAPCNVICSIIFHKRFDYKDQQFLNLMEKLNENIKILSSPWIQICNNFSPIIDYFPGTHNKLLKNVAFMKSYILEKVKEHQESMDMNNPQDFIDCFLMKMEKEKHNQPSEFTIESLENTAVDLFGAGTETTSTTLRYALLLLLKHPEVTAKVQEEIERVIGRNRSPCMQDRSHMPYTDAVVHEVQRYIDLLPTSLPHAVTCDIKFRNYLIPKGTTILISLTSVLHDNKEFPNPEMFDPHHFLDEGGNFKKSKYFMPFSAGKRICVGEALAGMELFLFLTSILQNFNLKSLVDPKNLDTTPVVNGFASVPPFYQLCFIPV

Cytochrome P450 2C19 = Cytochrome P450 2C19 (Homo sapiens, UniProt P33261); assay: Inhibition of CYP2C19 (unknown origin); assay type: ADME
Cytochrome P450 2C19, sequence (P33261 whole entry): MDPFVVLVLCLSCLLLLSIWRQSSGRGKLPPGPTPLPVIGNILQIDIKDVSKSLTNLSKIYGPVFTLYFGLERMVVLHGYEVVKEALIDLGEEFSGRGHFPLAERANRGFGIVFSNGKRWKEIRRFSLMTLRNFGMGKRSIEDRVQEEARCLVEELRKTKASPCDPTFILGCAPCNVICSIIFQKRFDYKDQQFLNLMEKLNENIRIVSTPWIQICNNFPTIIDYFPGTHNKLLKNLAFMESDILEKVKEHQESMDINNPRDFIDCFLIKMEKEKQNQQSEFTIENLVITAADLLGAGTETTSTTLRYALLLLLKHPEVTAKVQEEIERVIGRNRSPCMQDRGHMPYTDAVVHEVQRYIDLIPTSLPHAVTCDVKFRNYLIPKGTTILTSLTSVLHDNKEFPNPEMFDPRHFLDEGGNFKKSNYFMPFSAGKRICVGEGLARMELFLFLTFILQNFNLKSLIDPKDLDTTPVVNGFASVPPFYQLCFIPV

[12] = Cmax in Sprague-Dawley rat at 2 mg/kg, iv by LC-MS/MS analysis; assay type: ADME, organism-based; design: route intravenous, dose 2 mg/kg; conditions: in vivo
[13] = Apparent volume of distribution in Sprague-Dawley rat at 2 mg/kg, iv by LC-MS/MS analysis; assay type: ADME, organism-based; conditions: in vivo, read-out: Vz
[14] = Half life in Sprague-Dawley rat at 2 mg/kg, iv by LC-MS/MS analysis; assay type: ADME, organism-based; conditions: in vivo
[15] = MRT in Sprague-Dawley rat at 2 mg/kg, iv by LC-MS/MS analysis; assay type: ADME, organism-based; conditions: in vivo
[16] = biological target: Delta-type opioid receptor (Homo sapiens, UniProt P41143); assay: Agonist activity at human delta opioid receptor expressed in HEK293 assessed as increase in calcium mobilization incubated for 60 mins by FLIPR assay; assay type: functional, cell-based
Delta-type opioid receptor, sequence (P41143 whole entry): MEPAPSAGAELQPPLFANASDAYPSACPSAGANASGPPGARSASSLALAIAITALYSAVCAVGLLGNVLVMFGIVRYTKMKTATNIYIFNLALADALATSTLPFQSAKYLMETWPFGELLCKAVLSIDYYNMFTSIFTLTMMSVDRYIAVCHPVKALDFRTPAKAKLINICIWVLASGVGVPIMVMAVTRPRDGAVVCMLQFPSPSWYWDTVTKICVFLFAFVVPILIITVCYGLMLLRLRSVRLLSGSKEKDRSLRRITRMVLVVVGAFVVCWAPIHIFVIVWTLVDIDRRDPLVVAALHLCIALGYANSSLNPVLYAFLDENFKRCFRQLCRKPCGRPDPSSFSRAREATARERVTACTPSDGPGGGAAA

[17] = biological target: Kappa-type opioid receptor (Homo sapiens, UniProt P41145); assay: Agonist activity at human kappa opioid receptor expressed in HEK293 assessed as increase in calcium mobilization incubated for 60 mins by FLIPR assay; assay type: functional, cell-based
Kappa-type opioid receptor, sequence (P41145 whole entry): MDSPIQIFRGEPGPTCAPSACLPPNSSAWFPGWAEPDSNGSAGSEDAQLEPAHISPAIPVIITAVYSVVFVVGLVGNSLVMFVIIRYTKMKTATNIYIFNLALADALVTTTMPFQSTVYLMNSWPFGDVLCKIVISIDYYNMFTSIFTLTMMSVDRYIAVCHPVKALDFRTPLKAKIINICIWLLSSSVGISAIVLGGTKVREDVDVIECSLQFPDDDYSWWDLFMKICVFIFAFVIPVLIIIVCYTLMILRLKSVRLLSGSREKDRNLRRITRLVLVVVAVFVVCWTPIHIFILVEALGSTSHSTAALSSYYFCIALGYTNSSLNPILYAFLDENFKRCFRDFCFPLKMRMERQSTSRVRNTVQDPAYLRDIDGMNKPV

Rattus norvegicus [18] = assay: Antinociceptive activity in Sprague-Dawley rat assessed as increase in paw withdrawal latency at 1 mg/kg, sc measured after 30 mins by Hot-plate test; assay type: functional, organism-based
Rattus norvegicus [19] = assay: Antinociceptive activity in sc dosed Sprague-Dawley rat assessed as increase in thermal pain threshold measured after 30 mins by Hot-plate test; assay type: functional; conditions: 0.5 h
[20] = Drug concentration in Sprague-Dawley rat brain at […], iv measured after 5 mins by LC-MS/MS analysis; assay type: ADME, organism-based; conditions: dose 0.25 mg/kg, read-out: Drug uptake
[21] = Drug concentration in Sprague-Dawley rat liver at […],iv measured after 30 mins by LC-MS/MS analysis; assay type: ADME, organism-based; conditions: in vivo, 0.5 h, dose 0.25 mg/kg
[22] = Toxicity in Sprague-Dawley rat assessed as effect on blood oxygen levels at 1.56 mg/kg, sc measured after 30 mins by blood gas analyzer; assay type: organism-based; conditions: in vivo, 0.5 h
[23] = Half life of compound; assay type: physicochemical

Cc1cccc(CNCC[C@@]2(c3ccccn3)CCOC3(CCOC3)C2)c1 (stereo partly drawn)
EC50 (Mu-type opioid receptor [1]): 6.1 nM
CLint scaled [2]: 8.8 mL/min/kg
Emax (Mu-type opioid receptor [3]): 88.9%
EC50 (Mu-type opioid receptor [4]): > 30000 nM

FC1(F)Cc2csc(CNCC[C@@]3(c4ccccn4)CCOC4(CCCC4)C3)c2C1
EC50 (Mu-type opioid receptor [1]): 0.1 nM
Emax (Mu-type opioid receptor [3]): 96.9%
EC50 (Mu-type opioid receptor [4]): 10 nM
Emax (Mu-type opioid receptor [5]): 9.8%

COc1ccsc1CNCC[C@@]1(c2ccccn2)CCOC2(CCCC2)C1 [OLICERIDINE]
CLint scaled [6]: 1110 mL/min/kg
Papp A→B [7]: 4.4 ×10⁻⁶ cm/s
Emax (Mu-type opioid receptor [3]): 92.5%
CLint scaled [8]: 465 mL/min/kg
fraction unbound [9]: 0.22
fraction unbound [10]: 0.36
fraction unbound [11]: 0.023
IC50 (Cytochrome P450 2C9): > 50000 nM
IC50 (Cytochrome P450 2C19): > 50000 nM
Cmax [12]: 249 ng/mL
Vd [13]: 6.39 L/kg
half-life [14]: 72.6 min
MRT [15]: 49.2 min
EC50 [16]: > 10000 nM
EC50 [17]: > 10000 nM
Activity (Rattus norvegicus [18]): Active
ED50 (Rattus norvegicus [19]): 0.85 mg/kg
concentration at 5 min [20]: 64.8 ng/g
Drug uptake [21]: 23.8%
Emax (Mu-type opioid receptor [5]): 4.6%
Activity [22]: 87.62%
half-life [23]: 6.51 min

Fc1ccc([C@]2(CCNCc3scc4c3CCC4)CCO[C@]3(CCOC3)C2)nc1
CLint scaled [2]: 108 mL/min/kg
Emax (Mu-type opioid receptor [3]): 95.1%

COc1ccsc1CNCC[C@@]1(c2ccccn2)CCO[C@@]2(CCOC2)C1
Emax (Mu-type opioid receptor [3]): 66.3%
EC50 (Mu-type opioid receptor [4]): > 30000 nM

Clc1ccc(CNCC[C@@]2(c3ccccn3)CCOC3(CCOC3)C2)s1 (stereo partly drawn)
EC50 (Mu-type opioid receptor [1]): 22.3 nM
Emax (Mu-type opioid receptor [3]): 93.3%
EC50 (Mu-type opioid receptor [4]): > 30000 nM
Emax (Mu-type opioid receptor [5]): 2.3%

C[C@@H](NC(=O)[C@@H](N)Cc1ccc(O)cc1)C(=O)NCC(=O)N(C)[C@@H](Cc1ccccc1)C(=O)NCCO [DAMGO]
half-life [23]: 5.95 min

c1ccc([C@]2(CCNCc3scc4c3CCC4)CCO[C@]3(CCOC3)C2)nc1
EC50 (Mu-type opioid receptor [1]): 0.46 nM
CLint scaled [6]: 651 mL/min/kg
Papp A→B [7]: 2.4 ×10⁻⁶ cm/s
CLint scaled [2]: 49 mL/min/kg
Emax (Mu-type opioid receptor [3]): 96.9%
CLint scaled [8]: 203 mL/min/kg
fraction unbound [9]: 0.54
fraction unbound [10]: 0.58
fraction unbound [11]: 0.16

COc1ccsc1CNCC[C@@]1(c2ccccn2)CCO[C@]2(CCOC2)C1
EC50 (Mu-type opioid receptor [1]): 20 nM
CLint scaled [2]: 9.3 mL/min/kg
Emax (Mu-type opioid receptor [3]): 63.7%
EC50 (Mu-type opioid receptor [4]): > 30000 nM
Emax (Mu-type opioid receptor [5]): 1.2%

c1ccc([C@]2(CCNCC3CCCCC3)CCOC3(CCOC3)C2)nc1 (stereo partly drawn)
EC50 (Mu-type opioid receptor [1]): 61.6 nM
Emax (Mu-type opioid receptor [3]): 59.2%
EC50 (Mu-type opioid receptor [4]): > 30000 nM

FC1(F)CCc2csc(CNCC[C@@]3(c4ccccn4)CCOC4(CCCC4)C3)c2C1
EC50 (Mu-type opioid receptor [1]): 1.8 nM
CLint scaled [2]: 1610 mL/min/kg
Emax (Mu-type opioid receptor [3]): 92.5%
EC50 (Mu-type opioid receptor [4]): 11 nM
Emax (Mu-type opioid receptor [5]; filed as agonist): 54.3%

c1ccc([C@]2(CCNCc3scc4c3COC4)CCOC3(CCOC3)C2)nc1 (stereo partly drawn)
EC50 (Mu-type opioid receptor [1]): 14.1 nM
Emax (Mu-type opioid receptor [3]): 90.4%
EC50 (Mu-type opioid receptor [4]): > 30000 nM

Clc1cccc(CNCC[C@@]2(c3ccccn3)CCOC3(CCOC3)C2)c1 (stereo partly drawn)
EC50 (Mu-type opioid receptor [1]): 2.6 nM
CLint scaled [2]: 22.1 mL/min/kg
Emax (Mu-type opioid receptor [3]): 86.4%
EC50 (Mu-type opioid receptor [4]): > 30000 nM
